# Source: ChEMBL document CHEMBL3399936, “Selective CB2 receptor agonists. Part 1: the identification of novel ligands through computer-aided drug design (CADD) approaches” (Bioorg Med Chem Lett, 2015)
# Key:
# Cannabinoid receptor 2 = Cannabinoid receptor 2 (Homo sapiens, UniProt P34972); assay: Inhibition of human CB2 receptor expressed in CHO cells assessed as inhibition of forskolin-induced cAMP accumulation after 30 mins; assay type: functional, cell-based
# Homo sapiens = organism: Homo sapiens; assay: Ratio of EC50 for human CB1 receptor to EC50 for human CB2 receptor
# Cannabinoid receptor 1 [1] = molecular target: T1, Cannabinoid receptor 1 (Homo sapiens, UniProt P21554); assay: Inhibition of human CB1 receptor expressed in CHO cells assessed as inhibition of forskolin-induced cAMP accumulation after 30 mins; assay type: functional, cell-based
# [2] = Solubility of the compound at pH 7.4 after 16 to 18 hrs by UV spectrophotometry; assay type: physicochemical; details: buffer
# [3] = Half life in human liver microsomes at 1 uM by LC/MS/MS analysis; assay type: ADME
# Cannabinoid receptor 1 [4] = molecular target: T1, Cannabinoid receptor 1; assay: Partial agonist activity at human CB1 receptor expressed in CHO cells assessed as cAMP accumulation after 30 mins; assay type: functional, cell-based
# T1 sequence (P21554 whole entry): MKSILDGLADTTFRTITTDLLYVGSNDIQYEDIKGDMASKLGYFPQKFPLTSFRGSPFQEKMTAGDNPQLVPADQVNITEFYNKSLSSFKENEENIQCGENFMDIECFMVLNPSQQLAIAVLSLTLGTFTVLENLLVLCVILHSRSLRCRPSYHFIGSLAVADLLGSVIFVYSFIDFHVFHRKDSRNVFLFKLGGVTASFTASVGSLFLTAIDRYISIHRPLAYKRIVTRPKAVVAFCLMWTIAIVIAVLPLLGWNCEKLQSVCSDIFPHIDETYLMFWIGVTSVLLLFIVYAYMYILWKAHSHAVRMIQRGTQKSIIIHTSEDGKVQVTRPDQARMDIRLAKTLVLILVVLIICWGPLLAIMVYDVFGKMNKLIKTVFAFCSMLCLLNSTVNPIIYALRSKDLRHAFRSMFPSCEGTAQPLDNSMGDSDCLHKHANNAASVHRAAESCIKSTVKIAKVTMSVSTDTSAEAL
# Chain of Cannabinoid receptor 2 (P34972 whole entry): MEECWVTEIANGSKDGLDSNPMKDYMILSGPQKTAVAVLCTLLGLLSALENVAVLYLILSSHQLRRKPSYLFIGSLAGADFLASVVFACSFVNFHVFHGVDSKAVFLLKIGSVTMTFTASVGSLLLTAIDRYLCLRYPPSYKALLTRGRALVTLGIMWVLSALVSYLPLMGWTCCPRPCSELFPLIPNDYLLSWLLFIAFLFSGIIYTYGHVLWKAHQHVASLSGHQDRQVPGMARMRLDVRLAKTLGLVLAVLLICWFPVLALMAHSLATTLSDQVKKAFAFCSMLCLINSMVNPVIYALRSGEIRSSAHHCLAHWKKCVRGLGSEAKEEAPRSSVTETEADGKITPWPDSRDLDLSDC
structure (smiles),measurement,setting,value
CC(C)(C)c1cc(NC(=O)N2CC3CC2CN3C(=O)c2ccc(C(F)(F)F)cc2)no1 (stereo not given),EC50,Cannabinoid receptor 2,> 20 nM
CC(C)(C)c1cc(NC(=O)C(C)(C)S(=O)(=O)c2ccc(C(F)(F)F)cc2)no1,Ratio EC50,Homo sapiens,545
same,EC50,Cannabinoid receptor 1 [1],420 nM
same,EC50,Cannabinoid receptor 2,0.77 nM
O=C(Nc1cc(C(F)(F)F)on1)N1CCCN(C(=O)c2ccc(C(F)(F)F)cn2)CC1,Ratio EC50,Homo sapiens,50
same,solubility,[2],0.4 µg/mL
same,half-life at 1 µM,[3],9 min
same,EC50,Cannabinoid receptor 1 [1],253 nM
same,EC50,Cannabinoid receptor 2,5 nM
CCCCc1ccc(NC(=O)N2CCN(C(=O)CCC3CCCC3)CC2)cc1,EC50,Cannabinoid receptor 2,> 20 nM
CC(C)(C)c1cc(NC(=O)[C@]2(C)CCCN2c2ccc(C(F)(F)F)cn2)no1,Ratio EC50,Homo sapiens,12
same,EC50,Cannabinoid receptor 1 [1],0.5 nM
same,EC50,Cannabinoid receptor 2,0.04 nM
O=C(Nc1cc(C(F)(F)F)on1)N1CCCN(C(=O)c2ccc(C(F)(F)F)cc2)CC1,Ratio EC50,Homo sapiens,714
same,EC50,Cannabinoid receptor 1 [1],1000 nM
same,EC50,Cannabinoid receptor 2,1.4 nM
CC(C)(C)c1cc(NC(=O)[C@H]2CCCN2c2ccc(C(F)(F)F)cc2)no1,Activity,Cannabinoid receptor 1 [4],< 70%
CC(C)(C)c1cc(NC(=O)[C@]2(C)CCCN2c2ccc(C(F)(F)F)cc2)no1,Ratio EC50,Homo sapiens,52
same,EC50,Cannabinoid receptor 1 [1],15 nM
same,EC50,Cannabinoid receptor 2,0.29 nM
CC(C)(C)c1cc(NC(=O)[C@@H]2CCCN2c2ncc(C(F)(F)F)cc2Cl)no1,Ratio EC50,Homo sapiens,88
same,EC50,Cannabinoid receptor 1 [1],7 nM
CC(C)(C)c1cc(NC(=O)[C@H]2CCCN2c2ccc(Cl)cc2)no1,Activity,Cannabinoid receptor 1 [4],< 70%
CC(C)(C)c1cc(NC(=O)C(C)(C)S(=O)(=O)c2ccc(C(F)(F)F)cn2)no1,Ratio EC50,Homo sapiens,140
same,solubility,[2],12 µg/mL
same,half-life at 1 µM,[3],< 5 min
same,EC50,Cannabinoid receptor 1 [1],420 nM
same,EC50,Cannabinoid receptor 2,3 nM
CC(C)(C)c1cc(NC(=O)[C@]2(C)CCCN2c2ccc(Cl)cc2)no1,Ratio EC50,Homo sapiens,257
same,EC50,Cannabinoid receptor 1 [1],54 nM
